Measurements as given in patent US20260272924A1, “ISOINDOLINE DERIVATIVE, BENZOINDOLE DERIVATIVE AND USE THEREOF” (SHANGHAI HELIOSON PHARMACEUTICAL CO., LTD., priority 2023, published 2026).

The compounds below were run on NCI-H929 multiple myeloma cells (assay: Cell Titer-GLO (CTG) assay for proliferation of NCI-H929 cells). Details: Homo sapiens, 72 hours.
Assay type: cell-based
Protocol: 1. Experimental objective: To determine inhibitory activities of compounds on NCI-H929 multiple myeloma cells.
NCI-H929 cells, purchased from Nanjing Cobioer Biotechnology Co., Ltd, were cultured in RPM11640 (Viva; C3010-0500) medium containing 10% fetal bovine serum (Viva, C04002-500) and 1% of penicillin-streptomycin at 37° C. with 5% of C02 and saturated humidity conditions.
The cells in logarithmic growth phase were plated at 5000 cells per well of a 96-well plate and after overnight incubation, compounds at 0.00512 nM, 0.0256 nM, 0.128 nM, 0.64 nM, 3.2 nM, 16 nM, 80 nM, and 400 nM were dosed into the plate with each dose in 2 duplicate wells. Cells were incubated at 37° C., 5% CO2 for 72 hours. After the incubation, the plate was placed at room temperature for half an hour, and then 50 μL of Cell Titer-Glo® (Promega, G7573) was added. The plate was placed on a shaker for uniform mixing for 2 minutes and was placed in the dark at room temperature for 10 minutes. The luminance signal was measured using SpectraMax Paradigm (Molecular Devices).
Cell activity inhibition rate (%)=1 00−(RLUcompound−RLUblank)/(RLUcontrol−RLUblank)×100%, where control refers to the 0.1% DMSO treatment group, and blank refers to the culture medium control. IC50 values and maximum inhibition rates of the compounds were calculated using a nonlinear regression function “Dose-Response-Inhibition” in Graphpad Prism 7.0.
`O=C1CCC(N2C(=O)c3cccc4c(Cc5ccc(CN6CCN(c7cc(C(F)(F)F)nc(-n8cnc(C(F)(F)F)c8)n7)CC6)cc5)ccc2c34)C(=O)N1` (centres unmarked) [Example 56, 3-(2-oxo-6-(4-((4-(6-(trifluoromethyl)-2-(4-(trifluoromethyl)-1H-imidazol-1-yl)pyrimidin-4-yl)piperazin-1-yl)methyl)benzyl)benzo[cd]indol-1(2H)-yl)piperidin-2,6-dione] showed an IC50 of 0.1 nM.
With `O=C1CCC(N2C(=O)c3cccc4c(Cc5ccc(CN6CCN(c7cccc(-n8cnc(C(F)(F)F)n8)n7)CC6)cc5)ccc2c34)C(=O)N1` (centres unmarked) [Example 62, 3-(2-oxo-6-(4-((4-(6-(3-(trifluoromethyl)-1H-1,2,4-triazol-1-yl)pyridin-2-yl)piperazin-1-yl)methyl)benzyl)benzo[cd]indol-1(2H)-yl)piperidin-2,6-dione] the IC50 was 0.07 nM.
`Cc1ncn(-c2ncc(F)c(N3CCN(C4CN(Cc5ccc(Cc6ccc7c8c(cccc68)C(=O)N7C6CCC(=O)NC6=O)cc5)C4)CC3)n2)n1` (centres unmarked) [Example 49, 3-(6-(4-((3-(4-(5-fluoro-2-(3-methyl-1H-1,2,4-triazol-1-yl)pyrimidin-4-yl)piperazin-1-yl)azetidin-1-yl)methyl)benzyl)-2-oxobenzo[cd]indol-1(2H)-yl)piperidin-2,6-dione] gave an IC50 of 0.003 nM.
Work on `Cc1noc(C)c1-c1nccc(N2CCN(Cc3ccc(Cc4ccc5c6c(cccc46)C(=O)N5C4CCC(=O)NC4=O)cc3)CC2)n1` (centres unmarked) [Example 65, 3-(6-(4-((4-(2-(3,5-dimethylisoxazol-4-yl)pyrimidin-4-yl)piperazin-1-yl)methyl)benzyl)-2-oxobenzo[cd]indol-1(2H)-yl)piperidin-2,6-dione] yielded an IC50 of 0.03 nM.
Compound `O=C1CC[C@H](N2Cc3c(OCc4ccc(CN5CCN([C@H]6CC[C@H](NC(=O)c7cccc(-n8ccnc8)n7)CC6)CC5)cc4)cccc3C2=O)C(=O)N1` [Example 16, N-((1R,4R)-4-(4-(4-(((2-((S)-2,6-dioxopiperidin-3-yl)-1-oxoisoindolin-4-yl)oxy)methyl)benzyl)piperazin-1-yl)cyclohexyl)-6-(1H-imidazol-1-yl)pyridin-2-carboxamide] has an IC50 of 0.05 nM.
`Cc1nc(N2CCN(Cc3ccc(Cc4ccc5c6c(cccc46)C(=O)N5C4CCC(=O)NC4=O)cc3)CC2)cc(-n2cnc(C(F)(F)F)n2)n1` (centres unmarked) [Example 70, 3-(6-(4-((4-(2-methyl-6-(3-(trifluoromethyl)-1H-1,2,4-triazol-1-yl)pyrimidin-4-yl)piperazin-1-yl)methyl)benzyl)-2-oxobenzo[cd]indol-1(2H)-yl)piperidin-2,6-dione] was tested, and the IC50 was 0.1 nM.
Compound `Cc1nc(N2CCN(Cc3ccc(COc4cccc5c4CN([C@H]4CCC(=O)NC4=O)C5=O)cc3)CC2)cc(-n2cnc(C)n2)n1` [Example 71, (S)-3-(4-((4-((4-(2-methyl-6-(3-methyl-1H-1,2,4-triazol-1-yl)pyrimidin-4-yl)piperazin-1-yl)methyl)benzyl)oxy)-1-oxoisoindolin-2-yl)piperidin-2,6-dione] has an IC50 of 0.1 nM.
`Cc1nc(N2CCN(Cc3ccc(Cc4ccc5c6c(cccc46)C(=O)N5C4CCC(=O)NC4=O)cc3)CC2)cc(-n2cnc(C#N)c2)n1` (centres unmarked) [Example 51, 3-(6-(4-((4-(6-(-4-cyano-1H-imidazol-1-yl)-2-methylpyrimidin-4-yl)piperazin-1-yl)methyl)benzyl)-2-oxobenzo[cd]indol-1(2H)-yl)piperidin-2,6-dione] was tested, and the IC50 was 0.01 nM.
`O=C1CCC(N2C(=O)c3cccc4c(Cc5ccc(CN6CCN(c7nc(-c8cncs8)ncc7F)CC6)cc5)ccc2c34)C(=O)N1` (centres unmarked) [Example 60, 3-(6-(4-((4-(5-fluoro-2-(thiazol-5-yl)pyrimidin-4-yl)piperazin-1-yl)methyl)benzyl)-2-oxobenzo[cd]indol-1(2H)-yl)piperidin-2,6-dione] gave an IC50 of 0.03 nM.
`Cc1nc(N2CCN(Cc3ccc(COc4cccc5c4CN([C@H]4CCC(=O)NC4=O)C5=O)cc3)CC2)cc(-n2cnc(C(F)(F)F)c2)n1` [Example 72, (S)-3-(4-((4-((4-(2-methyl-6-(4-(trifluoromethyl)-1H-imidazol-1-yl)pyrimidin-4-yl)piperazin-1-yl)methyl)benzyl)oxy)-1-oxoisoindolin-2-yl)piperidin-2,6-dione] showed an IC50 of 0.1 nM.
With `Cn1cncc1-c1nccc(N2CCN(Cc3ccc(Cc4ccc5c6c(cccc46)C(=O)N5C4CCC(=O)NC4=O)cc3)CC2)n1` (centres unmarked) [Example 20, 3-(6-(4-((4-(2-(1-methyl-1H-imidazol-5-yl)pyrimidin-4-yl)piperazin-1-yl)methyl)benzyl)-2-oxobenzo[cd]indol-1(2H)-yl)piperidin-2,6-dione] the IC50 was 0.01 nM.
Compound `O=C1CC[C@H](N2Cc3c(OCc4ccc(CN5CCN(c6cccc(-c7cncs7)n6)CC5)cc4)cccc3C2=O)C(=O)N1` [Example 19, (S)-3-(1-oxo-4-((4-((4-(6-(thiazol-5-yl)pyridin-2-yl)piperazin-1-yl)methyl)benzyl)oxy)isoindolin-2-yl)piperidin-2,6-dione] has an IC50 of 0.3 nM.
Work on `Cc1ncn(-c2ncc(F)c(N3CCN(Cc4ccc(Cc5ccc6c7c(cccc57)C(=O)N6C5CCC(=O)NC5=O)cc4)CC3)n2)n1` (centres unmarked) [Example 68, 3-(6-(4-((4-(5-fluoro-2-(3-methyl-1H-1,2,4-triazol-1-yl)pyrimidin-4-yl)piperazin-1-yl)methyl)benzyl)-2-oxobenzo[cd]indol-1(2H)-yl)piperidin-2,6-dione] yielded an IC50 of 0.02 nM.
Work on `Cc1ncn(-c2nc(N3CCN(C4CN(Cc5ccc(Cc6ccc7c8c(cccc68)C(=O)N7C6CCC(=O)NC6=O)cc5)C4)CC3)cc(C(F)(F)F)n2)n1` (centres unmarked) [Example 52, 3-(6-(4-((3-(4-(2-(3-methyl-1H-1,2,4-triazol-1-yl)-6-(trifluoromethyl)pyrimidin-4-yl)piperazin-1-yl)azetidin-1-yl)methyl)benzyl)-2-oxobenzo[cd]indol-1(2H)-yl)piperidin-2,6-dione] yielded an IC50 of 0.01 nM.
With `NC(=O)c1cn(-c2cccc(N3CCN(Cc4ccc(COc5cccc6c5CN([C@H]5CCC(=O)NC5=O)C6=O)cc4)CC3)n2)cn1` [Example 57, (S)-1-(6-(4-(4-(((2-(2,6-dioxopiperidin-3-yl)-1-oxoisoindolin-4-yl)oxy)methyl)benzyl)piperazin-1-yl)pyridin-2-yl)-1H-imidazol-4-carboxamide] the IC50 was 0.1 nM.
`Cc1nc(N2CCN(Cc3ccc(Cc4ccc5c6c(cccc46)C(=O)N5C4CCC(=O)NC4=O)cc3)CC2)cc(-n2cc(C(F)(F)F)nn2)n1` (centres unmarked) [Example 73, 3-(6-(4-((4-(2-methyl-6-(4-(trifluoromethyl)-1H-1,2,3-triazol-1-yl)pyrimidin-4-yl)piperazin-1-yl)methyl)benzyl)-2-oxobenzo[cd]indol-1(2H)-yl)piperidin-2,6-dione] gave an IC50 of 0.03 nM.
Work on `O=C1CCC(N2C(=O)c3cccc4c(Cc5ccc(CN6CCN(CC7CCN(c8cccc(-n9ccnc9)n8)CC7)CC6)cc5)ccc2c34)C(=O)N1` (centres unmarked) [Example 8, 3-(6-(4-((4-((1-(6-(1H-imidazol-1-yl)pyridin-2-yl)piperidin-4-yl)methyl)piperazin-1-yl)methyl)benzyl)-2-oxobenzo[cd]indol-1(2H)-yl)piperidin-2,6-dione] yielded an IC50 of 0.04 nM.
`O=C1CCC(N2C(=O)c3cccc4c(Cc5ccc(CN6CCN(c7cc(C(F)(F)F)nc(-n8cnc(Cl)c8)n7)CC6)cc5)ccc2c34)C(=O)N1` (centres unmarked) [Example 74, 3-(6-(4-((4-(2-(4-chloro-1H-imidazol-1-yl)-6-(trifluoromethyl)pyrimidin-4-yl)piperazin-1-yl)methyl)benzyl)-2-oxobenzo[cd]indol-1(2H)-yl)piperidin-2,6-dione] gave an IC50 of 0.1 nM.
Compound `Cc1nc(N2CCN(Cc3ccc(Cc4ccc5c6c(cccc46)C(=O)N5C4CCC(=O)NC4=O)cc3)CC2)cc(-n2cnc(C(F)(F)F)c2)n1` (centres unmarked) [Example 29, 3-(6-(4-((4-(2-methyl-6-(4-(trifluoromethyl)-1H-imidazol-1-yl)pyrimidin-4-yl)piperazin-1-yl)methyl)benzyl)-2-oxobenzo[cd]indol-1(2H)-yl)piperidin-2,6-dione] has an IC50 of 0.02 nM.
In the case of `Cc1cc(N2CCN(Cc3ccc(Cc4ccc5c6c(cccc46)C(=O)N5C4CCC(=O)NC4=O)cc3)CC2)nc(-n2ccnc2)n1` (centres unmarked) [Example 10, 3-(6-(4-((4-(2-(1H-imidazol-1-yl)-6-methylpyrimidin-4-yl)piperazin-1-yl)methyl)benzyl)-2-oxobenzo[cd]indol-1(2H)-yl)piperidin-2,6-dione], the IC50 is reported as 0.03 nM.
With `O=C1CCC(N2C(=O)c3cccc4c(Cc5ccc(CN6CCN(c7ccnc(-c8cccnc8)n7)CC6)cc5)ccc2c34)C(=O)N1` (centres unmarked) [Example 64, 3-(2-oxo-6-(4-((4-(2-(pyridin-3-yl)pyrimidin-4-yl)piperazin-1-yl)methyl)benzyl)benzo[cd]indol-1(2H)-yl)piperidin-2,6-dione] the IC50 was 0.02 nM.
Work on `[2H]C([2H])(c1ccc(Cc2ccc3c4c(cccc24)C(=O)N3C2CCC(=O)NC2=O)cc1)N1CCN(c2cc(-n3cnc(C(F)(F)F)c3)nc(C)n2)CC1` (centres unmarked) [Example 82, 3-(6-(4-((4-(2-methyl-6-(4-(trifluoromethyl)-1H-imidazol-1-yl)pyrimidin-4-yl)piperazin-1-yl)methyl-d2)benzyl)-2-oxobenzo[cd]indol-1(2H)-yl)piperidin-2,6-dione] yielded an IC50 of 0.02 nM.
Work on `Cc1nnc(-c2cccc(N3CCN(Cc4ccc(Cc5ccc6c7c(cccc57)C(=O)N6[C@H]5CCC(=O)NC5=O)cc4)CC3)n2)s1` [Example 35, (S)-3-(6-(4-((4-(6-(5-methyl-1,3,4-thiadiazol-2-yl)pyridin-2-yl)piperazin-1-yl)methyl)benzyl)-2-oxobenzo[cd]indol-1(2H)-yl)piperidin-2,6-dione] yielded an IC50 of 0.01 nM.
